Counter-ions that a name gives are not always drawn. One block for each compound: values may come before it.
Tests used:
[1] = tested on: spontaneously hypertensive rats of the Okamoto strain; test: Hypotensive activity in spontaneously hypertensive rats (method of Chan and Poorvin); format: in vivo; conditions: by gavage, 100 mg/kg or less, second identical dose 24 hours later, MABP measured 28 hours after initial dose, average MABP of the rats used 160±1.5 mm of mercury
Protocol: The novel compounds of the present invention are active hypotensive agents and were tested for hypotensive activity by the method of P.S. Chan and D. Poorvin, Clinical and Experimental Hypertension, 1 (6), 817-830 (1979). Male, 16 week old, spontaneously hypertensive rats of the Okamoto strain, from Taconic Farms, Germantown, New York, having an average mean arterial blood pressure of 160±1.5 mm of mercury, were used in the test. One to four rats were used per test compound. A rat is dosed by gavage with a test compound suspended in 2% pre-boiled starch at a concentration of 50 mg/ml, at a dose of 100 mg/kg of body weight or less, with 0.9% sodium chloride loading at a dose of 25 ml/kg of body weight. A second identical dose of the test compound, without sodium chloride loading is given 24 hours later. At 28 hours after the initial dose the mean arterial blood pressure (MABP) is measured. The procedure is repeated in a second and third rat when necessary. The results of this test on representative compounds of the present invention appear below in Table II.

[2] = tested on: Male mice of the Swiss Webster Strain; test: Potassium chloride-induced arrhythmia in anesthetized mice (survival); format: in vivo; conditions: Mus musculus, iv, Dose = 10 mg/kg i.v.; potassium chloride 62.5 mg/kg i.v. bolus 5, 15 or 30 minutes after drug; observed 15 minutes; read-out: KCl #Mice Surviving #Mice Tested (converted)
Excerpt: (§1) Intravenous administration of high doses of calcium or potassium chloride in animals produces cardiac arrhythmias, cardiac fibrillation and cardiac arrest. Any agent that can prevent these events is considered an antiarrhythmic/antifibrillatory agent. (Meth. and Find Exptl. Clin Pharmacol.2:223-252(1980); Pharmacol, Ther. 24:401-433 (1984); Experimental Cardiac and Antiarrhythmic Drugs, L. Szekeres and Gy. J. Dapp, Akademiai Kiado Preso, Budapest, 9-448 (1971).)
(§2) The method employed is as follows: Male mice of the Swiss Webster Strain (Charles River, Wilmington, MA) weighing 25-35 g are anesthetized with ethyl carbamate (urethan) (1.5g/kg body weight i.p.). A 25-gauge needle attached to PE-20 tubing is inserted into a caudal vein for drug administration. The lead II ECG is recorded by needle electrodes placed subcutaneously in the limbs. All data is collected on a Gould Brush recorder. Animals are observed 5 minutes before drug administration. A 5, 15, or 30 minute period following drug administration is allowed before the bolus injection of calcium chloride, 200 mg/kg i.v. or potassium chloride, 62.5 mg/kg i.v. Control mice receive 4 ml/kg of 0.9% sodium chloride i.v. Mice are observed an additional 15 minutes for arrhythmias, fibrillation, survival or death. Any compound at a dose of less than 20 mg/kg i.v. that protects 3 out of 6 mice from cardiac death in either the potassium or calcium chloride test, is considered active.

[3] = tested on: Male mice of the Swiss Webster Strain; test: Calcium chloride-induced arrhythmia in anesthetized mice (survival); format: in vivo; conditions: Mus musculus, iv, Dose = 10 mg/kg i.v.; calcium chloride 200 mg/kg i.v. bolus 5, 15 or 30 minutes after drug; observed 15 minutes; read-out: CaCl2 #Mice Surviving #Mice Tested (converted)
Excerpt: as §1, §2

[4] = molecular target: T1, thromboxane synthetase enzyme (Rattus norvegicus, UniProt P49430); test: Inhibition of thromboxane (TXB2) formation in washed rat platelets, TXB2 radioimmunoassay; format: biochemical, Okamoto-Aoki spontaneously hypertensive rats (SHR); conditions: Concentration 1x10^-4M, platelet suspension incubated 10 minutes at 37 °C
T1 construct: from tissue; host or cells: washed blood platelets from Okamoto-Aoki spontaneously hypertensive rats (SHR)
T1 sequence (P49430 1-533): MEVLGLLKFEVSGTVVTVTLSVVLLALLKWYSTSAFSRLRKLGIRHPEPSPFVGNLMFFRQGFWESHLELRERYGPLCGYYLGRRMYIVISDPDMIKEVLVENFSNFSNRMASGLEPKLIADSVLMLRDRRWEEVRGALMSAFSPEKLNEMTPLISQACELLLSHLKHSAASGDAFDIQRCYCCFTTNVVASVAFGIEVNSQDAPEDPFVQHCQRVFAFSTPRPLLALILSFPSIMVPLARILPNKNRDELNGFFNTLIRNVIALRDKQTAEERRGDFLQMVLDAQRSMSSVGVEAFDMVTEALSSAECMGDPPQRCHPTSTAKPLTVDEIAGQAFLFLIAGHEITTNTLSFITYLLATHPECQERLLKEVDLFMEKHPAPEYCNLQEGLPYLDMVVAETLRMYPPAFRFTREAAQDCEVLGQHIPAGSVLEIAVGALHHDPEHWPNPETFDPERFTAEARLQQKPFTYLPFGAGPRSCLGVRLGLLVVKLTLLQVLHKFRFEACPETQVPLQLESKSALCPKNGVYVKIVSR
Protocol: Under urethan anesthesia, […] of arterial blood from Okamoto-Aoki spontaneously hypertensive rats (SHR) (Taconic Farms, Germantown, NY) between 19 and 24 weeks in age is collected in one ml of 3.2% sodium citrate in a polystyrene tube. The blood is diluted with 3 ml of cold saline and centrifuged at room temperature for 15 minutes at 460xg. The platelet rich plasma (PRP) is separated. The platelets are isolated by centrifuging the PRP for 10 minutes at 1060xg and are washed in 4 ml of cold oxygenated Krebs phosphate buffer, pH 7.4. The chilled platelets, recovered from centrifuging at 800xg for 10 minutes, are resuspended in oxygenated Krebs phosphate buffer and diluted to contain 4.5-6.0 x 10⁴ platelets/µ1. The inhibition of thromboxane (TX) formation is studied by determining the concentration of thromboxane B₂ (TXB₂), the stable hydrolysis product of TXA₂. Assay samples, prepared on ice, contain 200 µ1 platelet suspension, 50 µ1 saline, and 50 µ1 vehicle (saline) or drug under study. The samples are incubated for 10 minutes at 37 °C in a metabolic shaker. The reaction is terminated by immersing the tubes in an ice bath and adding 50 µl of 0.5M citric acid. The samples are centrifuged for 10 minutes in a refrigerated centrifuge and the supernatants thus obtained are decanted and stored at -20 °C. The TXB₂ content for each sample is determined by a direct radioimmunoassay (RIA) utilizing a TXB₂ specific RIA kit purchased from New England Nuclear, Boston, MA and expressed as pg TXB₂ formed per minute per sample, from which the percent inhibition of TXB₂ formation is calculated.

SMILES: Cc1ccc(C#N)c(NCCCCCn2ccnc2)n1 [Example 90, 2-[[5-(1H-Imidazol-1-yl)pentyl]amino]-6-methyl-3-pyridinecarbonitrile]
Avg. MABP in mm Hg (No. of Rats) [1]: 116 (2) mm Hg
responders at 10 mg/kg [2]: 50%
responders at 10 mg/kg [3]: 0%

SMILES: O=[N+]([O-])c1ccc(NCCCn2ccnc2)nc1 [Example 1, N-[3-(1H-Imidazol-1-yl)propyl]-5-nitro-2-pyridinamine,(Z)-2-butenedioate (1:1)]
Avg. MABP in mm Hg (No. of Rats) ([1]; 100 mg/kg): 121 (4) mm Hg

inhibition at 100 µM [4]: 79%
SMILES: Cc1ccc(C#N)c(NCCCn2ccnc2)n1 [Example 3, 2-[[3-(1H-Imidazol-1-yl)propyl]amino]-6-methyl-3-pyridinecarbonitrile]
Avg. MABP in mm Hg (No. of Rats) [1]: 80 (2) mm Hg

SMILES: CC(CNc1nc2ccccc2c2ccccc12)Cn1ccnc1 (centres unmarked) [Example 86, N-[3-(1H-Imidazol-1-yl)-2-methylpropyl]-6-phenanthridinamine]
Avg. MABP in mm Hg (No. of Rats) [1]: 114 (2) mm Hg
responders at 10 mg/kg [2]: 50%
responders at 10 mg/kg [3]: 16.7%
inhibition at 100 µM [4]: 100%

SMILES: N#Cc1cccnc1NCCCn1ccnc1 [Example 4, 2-[[3-(1H-Imidazol-1-yl)propyl]amino]-3-pyridinecarbonitrile]
Avg. MABP in mm Hg (No. of Rats) [1]: 117 (4) mm Hg
responders at 10 mg/kg [2]: 16.7%
responders at 10 mg/kg [3]: 66.7%
inhibition at 100 µM [4]: 93%

SMILES: N#Cc1cc2ccccc2nc1NCCCn1ccnc1 [Example 82, 2-[[3-(1H-Imidazol-1-yl)propyl]amino]-3-quinolinecarbonitrile]
Avg. MABP in mm Hg (No. of Rats) [1]: 94 (2) mm Hg

SMILES: Cc1cc(NCCCn2ccnc2)nc2c(C)cccc12 [Example 32, N-[3-(1H-Imidazol-1-yl)propyl]-4,8-dimethyl-2-quinolinamine]
Avg. MABP in mm Hg (No. of Rats) [1]: 96 (2) mm Hg
responders at 10 mg/kg [2]: 50%
responders at 10 mg/kg [3]: 0%
inhibition at 100 µM [4]: 98%

inhibition at 100 µM [4]: 97%
SMILES: COc1ccc2nc(NCCCn3ccnc3)cc(C)c2c1 [Example 21, N-[3-(1H-Imidazol-1-yl)propyl]-6-methoxy-4-methyl-2-quinolinamine]
Avg. MABP in mm Hg (No. of Rats) [1]: 110 (2) mm Hg

inhibition at 100 µM [4]: 84%
SMILES: c1ccc2c(NCCCn3ccnc3)nccc2c1 [Example 14, N-[3-(1H-Imidazol-1-yl)propyl]-1-isoquinolinamine]
Avg. MABP in mm Hg (No. of Rats) [1]: 121 (3) mm Hg

SMILES: CC(=O)c1cc(C#N)c(NCCCn2ccnc2)nc1C [Example 12, 5-Acetyl-2-[[3-(1H-Imidazol-1-yl)propyl]amino]-6-methyl-3-pyridinecarbonitrile]
responders at 10 mg/kg [2]: 66.7%
responders at 10 mg/kg [3]: 16.7%
inhibition at 100 µM [4]: 96%

SMILES: O=[N+]([O-])c1ccc(NCCCn2ccnc2)nc1 [Example 11, N-[3-(1H-imidazol-1-yl)propyl]-5-nitro-2-pyridinamine]
Avg. MABP in mm Hg (No. of Rats) ([1]; 100 mg/kg): 119 (2) mm Hg
responders at 10 mg/kg [2]: 50%
responders at 10 mg/kg [3]: 0%

SMILES: Cc1cc(NCCCCc2cccnc2)nc2ccccc12 [Example 103, 4-Methyl-N-4-(3-pyridinylbutyl)-2-quinolinamine, dihydrochloride]
Avg. MABP in mm Hg (No. of Rats) [1]: 87 (2) mm Hg

SMILES: Cc1nc(NCCCn2ccnc2)ccc1C#N [Example 30, 6-[[3-(1H-Imidazol-1-yl)propyl]amino]-2-methyl-3-pyridinecarbonitrile]
Avg. MABP in mm Hg (No. of Rats) [1]: 61 (2) mm Hg
responders at 10 mg/kg [2]: 100%
responders at 10 mg/kg [3]: 16.7%
inhibition at 100 µM [4]: 94%

SMILES: c1ccc2c(c1)nc(NCCCCn1ccnc1)c1ccccc12 [Example 104, N-[4-(1H-Imidazol-1-yl)butyl]-6-phenanthridinamine]
Avg. MABP in mm Hg (No. of Rats) [1]: 93 (1) mm Hg

inhibition at 100 µM [4]: 98%
SMILES: Cc1cc(NCCCn2ccnc2)nc2ccccc12 [Example 6, N-[3-(1H-Imidazol-1-yl)propyl]-4-methyl-2-quinolinamine]
Avg. MABP in mm Hg (No. of Rats) [1]: 100 (3) mm Hg

SMILES: Cc1cc(NCC(C)Cn2ccnc2)nc2ccccc12 (centres unmarked) [Example 88, N-[3-(1H-Imidazol-1-yl)-2-methylpropyl]-4-methyl-2-quinolinamine]
Avg. MABP in mm Hg (No. of Rats) [1]: 96 (2) mm Hg
responders at 10 mg/kg [2]: 83.3%
responders at 10 mg/kg [3]: 16.7%
inhibition at 100 µM [4]: 98%

SMILES: Cc1cc(NCCCCn2ccnc2)nc2ccccc12 [Example 101, N-[4-(1H-Imidazol-1-yl)butyl]-4-methyl-2-quinolinamine]
Avg. MABP in mm Hg (No. of Rats) [1]: 96 (2) mm Hg

SMILES: Cc1cc(NCCC(C)n2ccnc2)nc2ccccc12 (centres unmarked) [Example 87, N-[3-(1H-Imidazol-1-yl)butyl]-4-methyl-2-quinolinamine]
Avg. MABP in mm Hg (No. of Rats) [1]: 111 (2) mm Hg

SMILES: Cc1cc(NCCCc2cccnc2)nc2ccccc12.Cl.Cl [Example 98, 4-Methyl-N-[3-(3-pyridinyl)propyl]-2-quinolinamine, dihydrochloride]
Avg. MABP in mm Hg (No. of Rats) [1]: 95 (2) mm Hg
responders at 10 mg/kg [2]: 83.3%
responders at 10 mg/kg [3]: 83.3%

inhibition at 100 µM [4]: 97%
SMILES: COc1ccc2nc(NCCCCc3cccnc3)cc(C)c2c1 [Example 106, 6-Methoxy-4-methyl-N-[4-(3-pyridinyl)butyl]-2-quinolinamine]
Avg. MABP in mm Hg (No. of Rats) [1]: 120 (2) mm Hg

SMILES: Cc1cc(C)c2ccc(NCCCn3ccnc3)nc2n1 [Example 24, N-[3-(1H-Imidazol-1-yl)propyl]-5,7-dimethyl-1,8-naphthyridin-2-amine, (E)-2-butenedioate (1:2)]
responders at 10 mg/kg [2]: 100%
responders at 10 mg/kg [3]: 16.7%
inhibition at 100 µM [4]: 93%

SMILES: Cc1cc(NCCCCc2cccnc2)nc2c(C)cccc12 [Example 107, 4,8-Dimethyl-N-[4-(3-pyridinyl)butyl]-2-quinolinamine]
responders at 10 mg/kg [2]: 83.3%
responders at 10 mg/kg [3]: 0%
inhibition at 100 µM [4]: 99%

inhibition at 100 µM [4]: 91%
SMILES: c1cn(CCCNc2ccc3sccc3n2)cn1 [Example 62, N-[3-(1H-Imidazol-1-yl)propyl]thieno[3,2-b]-pyridin-5-amine]
Avg. MABP in mm Hg (No. of Rats) [1]: 105 (2) mm Hg

Reference: patent EP0446604A2, “Pyridine and related aza heterocycle derivatives as cardiovascular agents” (AMERICAN CYANAMID COMPANY, priority 1990, dated 1991)
